Assay results reported in patent US20210045385A1, “PYRIDAZINONE-SUBSTITUTED KETOXIMES AS HERBICIDES” (FMC Corporation, priority 2018, published 2021).

Legend:
Assay type in all cases: in vivo
[1] = test system: pigweed (Amaranthus retroflexus); assay: Test C postemergence, visual plant response rating
Outline: (§1)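 Compounds in a non-phytotoxic solvent with surfactant were applied as a directed soil spray preemergence or to 2–10 cm, one- to two-leaf plants postemergence, in loam–sand soil. After about 10 d in a greenhouse, injury was visually rated against untreated controls on a 0–100 scale (100 = complete control).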

[2] = test system: Italian ryegrass (Lolium mutiflorum); assay: Test C postemergence, visual plant response rating
Outline: as §1

[3] = test system: foxtail, giant (giant foxtail, Setaria faberi); assay: Test C postemergence, visual plant response rating
Outline: as §1

[4] = test system: galium (catchweed bedstraw, Galium aparine); assay: Test C postemergence, visual plant response rating
Outline: as §1

corn (Zea mays) = assay: Test C postemergence, visual plant response rating
Outline: as §1

[5] = test system: barnyardgrass (Echinochloa crus-galli); assay: Test C postemergence, visual plant response rating
Outline: as §1

kochia (Bassia scoparia) [6] = assay: Test C postemergence, visual plant response rating
Outline: as §1

[7] = test system: wheat (Triticum aestivum); assay: Test C postemergence, visual plant response rating
Outline: as §1

[8] = test system: ragweed (common ragweed, Ambrosia artemisiifolia); assay: Test C postemergence, visual plant response rating
Outline: as §1

[9] = test system: blackgrass (Alopecurus myosuroides); assay: Test C postemergence, visual plant response rating
Outline: as §1

[10] = test system: pigweed (Amaranthus retroflexus); assay: Test C preemergence, visual plant response rating; settings: Test C, 0 is no effect, 100 is complete control
Outline: as §1

[11] = test system: Italian ryegrass (Lolium mutiflorum); assay: Test C preemergence, visual plant response rating; settings: Test C, 0 is no effect, 100 is complete control
Outline: as §1

[12] = test system: foxtail, giant (giant foxtail, Setaria faberi); assay: Test C preemergence, visual plant response rating; settings: Test C, 0 is no effect, 100 is complete control
Outline: as §1

[13] = test system: barnyardgrass (Echinochloa crus-galli); assay: Test C preemergence, visual plant response rating; settings: Test C, 0 is no effect, 100 is complete control
Outline: as §1

kochia (Bassia scoparia) [14] = assay: Test C preemergence, visual plant response rating; settings: Test C, 0 is no effect, 100 is complete control
Outline: as §1

[15] = test system: ragweed (common ragweed, Ambrosia artemisiifolia); assay: Test C preemergence, visual plant response rating; settings: Test C, 0 is no effect, 100 is complete control
Outline: as §1

rice (Oryza sativa) = assay: Test D flooded paddy test, visual plant response rating; settings: 250 g ai/ha, scale 0 to 100 (0 no effect, 100 complete control), 13 to 15 d
Outline: (§2)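 2-leaf plants, flooded 3 cm, cpd into paddy water; greenhouse 13–15 d; visual rating vs controls, 0 = no effect, 100 = complete control; dash = no result.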

[16] = test system: duck salad (Heteranthera limosa); assay: as above; settings: 250 g ai/ha, scale 0 to 100 (0 no effect, 100 complete control), 13 to 15 d
Outline: as §2

[17] = test system: barnyardgrass (Echinochloa crus-galli); assay: as above; settings: 250 g ai/ha, scale 0 to 100 (0 no effect, 100 complete control), 13 to 15 d
Outline: as §2

[18] = test system: sedge umbrella (small-flower umbrella sedge, Cyperus difformis); assay: as above; settings: 250 g ai/ha, scale 0 to 100 (0 no effect, 100 complete control), 13 to 15 d
Outline: as §2

[19] = Test C, postemergence, 125 g ai/ha

| Structure (SMILES) | Pigweed plant response rating (0 to 100 scale) ([1]; Postemergence, 31 g ai/ha) | Pigweed plant response rating (0 to 100 scale) [1, 19] | Ryegrass, Italian plant response rating (0 to 100 scale) ([2]; Postemergence, 31 g ai/ha) | Ryegrass, Italian plant response rating (0 to 100 scale) [2, 19] | Foxtail, Giant plant response rating (0 to 100 scale) ([3]; Postemergence, 31 g ai/ha) | Foxtail, Giant plant response rating (0 to 100 scale) [3, 19] | Galium plant response rating (0 to 100 scale) ([4]; Postemergence, 31 g ai/ha) | Galium plant response rating (0 to 100 scale) [4, 19] | Corn plant response rating (0 to 100 scale) (corn (Zea mays); Postemergence, 31 g ai/ha) | Corn plant response rating (0 to 100 scale) (corn (Zea mays); [19]) | Barnyardgrass plant response rating (0 to 100 scale) ([5]; Postemergence, 31 g ai/ha) | Barnyardgrass plant response rating (0 to 100 scale) [5, 19] | Kochia plant response rating (0 to 100 scale) (kochia (Bassia scoparia) [6]; Postemergence, 31 g ai/ha) | Kochia plant response rating (0 to 100 scale) (kochia (Bassia scoparia) [6]; [19]) | Wheat plant response rating (0 to 100 scale) ([7]; Postemergence, 31 g ai/ha) | Wheat plant response rating (0 to 100 scale) [7, 19] | Ragweed plant response rating (0 to 100 scale) ([8]; Postemergence, 31 g ai/ha) | Ragweed plant response rating (0 to 100 scale) [8, 19] | Blackgrass plant response rating (0 to 100 scale) ([9]; Postemergence, 31 g ai/ha) | Blackgrass plant response rating (0 to 100 scale) [9, 19] | further results |
| --- | --- | --- | --- | --- | --- | --- | --- | --- | --- | --- | --- | --- | --- | --- | --- | --- | --- | --- | --- | --- | --- |
| C#CCO/N=C(/c1c(O)c(C)nn(C)c1=O)c1cc(Cl)cc2ccccc12 [Compound 192] | 50 | 80 | 20 | 70 | 70 | 80 | 80 | 100 | 20 | 30 | 80 | 90 | 30 | 60 | 0 | 50 | 80 | 90 | 40 | 70 | Pigweed plant response rating (0 to 100 scale) ([10]; 31 g ai/ha): 40; Pigweed plant response rating (0 to 100 scale) ([10]; 125 g ai/ha): 100; Ryegrass, Italian plant response rating (0 to 100 scale) ([11]; 31 g ai/ha): 10; Ryegrass, Italian plant response rating (0 to 100 scale) ([11]; 125 g ai/ha): 70; Foxtail, Giant plant response rating (0 to 100 scale) ([12]; 31 g ai/ha): 60; Foxtail, Giant plant response rating (0 to 100 scale) ([12]; 125 g ai/ha): 90; Barnyardgrass plant response rating (0 to 100 scale) ([13]; 31 g ai/ha): 30; Barnyardgrass plant response rating (0 to 100 scale) ([13]; 125 g ai/ha): 90; Kochia plant response rating (0 to 100 scale) (kochia (Bassia scoparia) [14]; 31 g ai/ha): 0; Kochia plant response rating (0 to 100 scale) (kochia (Bassia scoparia) [14]; 125 g ai/ha): 20; Ragweed plant response rating (0 to 100 scale) ([15]; 31 g ai/ha): 30; Ragweed plant response rating (0 to 100 scale) ([15]; 125 g ai/ha): 70; Plant response rating, Rice (Flood) (rice (Oryza sativa)): 0; Plant response rating, Ducksalad (Flood) [16]: 70; Plant response rating, Barnyardgrass (Flood) [17]: 50; Plant response rating, Sedge, Umbrella (Flood) [18]: 70 |
| CO/N=C(\c1cc(F)cc(C)c1F)c1c(O)c(C)nn(C)c1=O [Compound 193] | 40 | 80 | 40 | 70 | 40 | 50 | 80 | 90 | 0 | 10 | 20 | 50 | 60 | 70 | 0 | 0 | 70 | 70 | 20 | 50 | Pigweed plant response rating (0 to 100 scale) ([10]; 31 g ai/ha): 50; Pigweed plant response rating (0 to 100 scale) ([10]; 125 g ai/ha): 90; Ryegrass, Italian plant response rating (0 to 100 scale) ([11]; 31 g ai/ha): 30; Ryegrass, Italian plant response rating (0 to 100 scale) ([11]; 125 g ai/ha): 80; Foxtail, Giant plant response rating (0 to 100 scale) ([12]; 31 g ai/ha): 30; Foxtail, Giant plant response rating (0 to 100 scale) ([12]; 125 g ai/ha): 80; Barnyardgrass plant response rating (0 to 100 scale) ([13]; 31 g ai/ha): 30; Barnyardgrass plant response rating (0 to 100 scale) ([13]; 125 g ai/ha): 60; Kochia plant response rating (0 to 100 scale) (kochia (Bassia scoparia) [14]; 31 g ai/ha): 10; Kochia plant response rating (0 to 100 scale) (kochia (Bassia scoparia) [14]; 125 g ai/ha): 70; Ragweed plant response rating (0 to 100 scale) ([15]; 31 g ai/ha): 30; Ragweed plant response rating (0 to 100 scale) ([15]; 125 g ai/ha): 60; Plant response rating, Rice (Flood) (rice (Oryza sativa)): 0; Plant response rating, Ducksalad (Flood) [16]: 0; Plant response rating, Barnyardgrass (Flood) [17]: 0; Plant response rating, Sedge, Umbrella (Flood) [18]: 0 |
| C#CCON=C(c1cccc(OCC(F)(F)F)c1)c1c(O)c(C)nn(C)c1=O [Compound 197] | 10 | 30 | 0 | 20 | 0 | 20 | 0 | 30 | 0 | 0 | 0 | 10 | 0 | 0 | 0 | 0 | 0 | 0 | 0 | 30 | Pigweed plant response rating (0 to 100 scale) ([10]; 31 g ai/ha): 0; Pigweed plant response rating (0 to 100 scale) ([10]; 125 g ai/ha): 20; Ryegrass, Italian plant response rating (0 to 100 scale) ([11]; 31 g ai/ha): 0; Ryegrass, Italian plant response rating (0 to 100 scale) ([11]; 125 g ai/ha): 20; Foxtail, Giant plant response rating (0 to 100 scale) ([12]; 31 g ai/ha): 0; Foxtail, Giant plant response rating (0 to 100 scale) ([12]; 125 g ai/ha): 10; Barnyardgrass plant response rating (0 to 100 scale) ([13]; 31 g ai/ha): 0; Barnyardgrass plant response rating (0 to 100 scale) ([13]; 125 g ai/ha): 0; Kochia plant response rating (0 to 100 scale) (kochia (Bassia scoparia) [14]; 31 g ai/ha): 0; Kochia plant response rating (0 to 100 scale) (kochia (Bassia scoparia) [14]; 125 g ai/ha): 0; Ragweed plant response rating (0 to 100 scale) ([15]; 31 g ai/ha): 0; Ragweed plant response rating (0 to 100 scale) ([15]; 125 g ai/ha): 0; Plant response rating, Rice (Flood) (rice (Oryza sativa)): 0; Plant response rating, Ducksalad (Flood) [16]: 0; Plant response rating, Barnyardgrass (Flood) [17]: 0; Plant response rating, Sedge, Umbrella (Flood) [18]: 0 |
| CON=C(c1cccc(OCC(F)(F)F)c1)c1c(O)c(C)nn(C)c1=O [Compound 198] | 0 | 10 | 0 | 60 | 20 | 70 | 0 | 20 | 0 | 20 | 20 | 80 | 0 | 0 | 0 | 0 | 0 | 0 | 0 | 40 | Pigweed plant response rating (0 to 100 scale) ([10]; 31 g ai/ha): 0; Pigweed plant response rating (0 to 100 scale) ([10]; 125 g ai/ha): 0; Ryegrass, Italian plant response rating (0 to 100 scale) ([11]; 31 g ai/ha): 0; Ryegrass, Italian plant response rating (0 to 100 scale) ([11]; 125 g ai/ha): 70; Foxtail, Giant plant response rating (0 to 100 scale) ([12]; 31 g ai/ha): 0; Foxtail, Giant plant response rating (0 to 100 scale) ([12]; 125 g ai/ha): 70; Barnyardgrass plant response rating (0 to 100 scale) ([13]; 31 g ai/ha): 0; Barnyardgrass plant response rating (0 to 100 scale) ([13]; 125 g ai/ha): 40; Kochia plant response rating (0 to 100 scale) (kochia (Bassia scoparia) [14]; 31 g ai/ha): 0; Kochia plant response rating (0 to 100 scale) (kochia (Bassia scoparia) [14]; 125 g ai/ha): 0; Ragweed plant response rating (0 to 100 scale) ([15]; 31 g ai/ha): 0; Ragweed plant response rating (0 to 100 scale) ([15]; 125 g ai/ha): 0; Plant response rating, Rice (Flood) (rice (Oryza sativa)): 0; Plant response rating, Ducksalad (Flood) [16]: 0; Plant response rating, Barnyardgrass (Flood) [17]: 0; Plant response rating, Sedge, Umbrella (Flood) [18]: 0 |
